# From ChEMBL document CHEMBL1201862, “PubChem BioAssay data set” (2004)
# Activity calls are given as the source filed them.
# What was measured:
# [1] = molecular target: Induced myeloid leukemia cell differentiation protein Mcl-1 (Homo sapiens, UniProt Q07820); assay type: functional
# [2] = viability of uninfected HEp-2 cells – cell-based, HTS, cytotoxicity control for RSV inhibitor project, dose response (AID 2410); assay type: functional; conditions: human respiratory syncytial virus
# [3] = cells
# [4] = molecular target: Peroxisome proliferator-activated receptor gamma/Nuclear receptor coactivator 1 (Homo sapiens, UniProt P37231); experiment: (§1) TR-FRET dose response biochemical High Throughput Screening assay for agonists of the steroid receptor coactivator 1 (SRC-1) recruitment by the peroxisome proliferator-activated receptor gamma (PPAR gamma): non-selective agonists. [Related pubchem assays (depositor defined):AID1300, AID1808, AID504735, AID631]; assay type: protein assay
# [5] = molecular target: Peroxisome proliferator-activated receptor gamma/Nuclear receptor coactivator 3 (Homo sapiens, UniProt P37231); experiment: as §1, with “3 (SRC-3)” for “1 (SRC-1)”, “assays: 1301 (Confirmation screen.), 1048 (Primary screen.)]” for “assays (depositor defined):AID1300, AID1808, AID504735, AID631]”; assay type: functional
# [6] = molecular target: Peroxisome proliferator-activated receptor gamma/Nuclear receptor coactivator 2 (Homo sapiens, UniProt P37231); experiment: TR-FRET dose response biochemical High Throughput Screening assay for agonists of the steroid receptor coactivator 2 (SRC-2) recruitment by the peroxisome proliferator-activated receptor gamma (PPAR gamma): non-selective agonists. [Related pubchem assays: 1297, 1032 ]; assay type: functional
# [7] = molecular target: Glyceraldehyde-3-phosphate dehydrogenase (Homo sapiens, UniProt P04406)
# [8] = molecular target: FAD-linked sulfhydryl oxidase ALR (Homo sapiens, UniProt P55789); experiment: ALR-catalysed DTT oxidation blockers – biochemical, H2O2 detection, luminescence, cherry-pick, dose response (AID 493248)
# [9] = molecular target: T1, Estrogen receptor beta (Homo sapiens, UniProt Q92731);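 also: recombinant ER-beta bound to coactivator SRC1 peptide in presence of estradiol agonist; inhibitors block coactivator peptide binding and lower the FRET signal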
# [10] = molecular target: T1, Estrogen receptor beta; experiment: blockers of SRC-3 recruitment to ERβ – biochemical, ELISA, streptavidin-HRP readout, orthogonal assay, confirmation (AID 1060)
# [11] = molecular target: T2, Polyadenylate-binding protein 1 (Homo sapiens, UniProt P11940); experiment: MLLE binding blockers, Cy5 peptide tracer – biochemical, fluorescence polarization, Cy5-PAM2 peptide, secondary, miRNA deadenylation inhibitor project, dose response (AID 602260); assay type: functional; conditions: read-out: IC50_Mean
# [12] = molecular target: T2, Polyadenylate-binding protein 1; experiment: MLLE domain peptide-binding blockers, IC50 – biochemical, fluorescence polarization, FITC-PAM2 peptide, dose response (AID 602259); assay type: functional; conditions: read-out: IC50_Mean
# [13] = HPDE-C7 pancreatic duct cell viability loss – fluorescence, HTS (AID 430); assay type: functional, cell-based; conditions: Homo sapiens
# [14] = viability loss of HPDE-C7K cells – cell-based, fluorescence, HTS, primary screen (AID 431); assay type: functional; conditions: Homo sapiens
# [15] = Trypanosoma cruzi growth suppression in host cells – NIH3T3 host cells, beta-gal luminescence, confirmation (AID 2044); assay type: functional, cell-based;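 also: intracellular parasites grown in NIH/3T3 mouse fibroblasts as host cells; luminescent beta-galactosidase reporter signal from transgenic T. cruzi replicating inside host cells; inhibitors lower the luminescence signal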
# [16] = NIH3T3 cell viability loss – ATP luminescence, mouse fibroblasts, counter-screen, dose response (AID 2010); assay type: functional, cell-based;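 also: cells exposed to compound for about 90 hours before reading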
# [17] = molecular target: T3, Short transient receptor potential channel 4 (Mus musculus, UniProt Q9QUQ5); experiment: block of DAMGO-driven TRPC4 calcium entry – cell-based, HEK293 TRPC4/mu-opioid, Fluo-4 calcium, dose response (AID 434942); assay type: functional;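 also: potency of inhibitors blocking the TRPC4 calcium response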
# T3 sequence (Q9QUQ5 whole entry): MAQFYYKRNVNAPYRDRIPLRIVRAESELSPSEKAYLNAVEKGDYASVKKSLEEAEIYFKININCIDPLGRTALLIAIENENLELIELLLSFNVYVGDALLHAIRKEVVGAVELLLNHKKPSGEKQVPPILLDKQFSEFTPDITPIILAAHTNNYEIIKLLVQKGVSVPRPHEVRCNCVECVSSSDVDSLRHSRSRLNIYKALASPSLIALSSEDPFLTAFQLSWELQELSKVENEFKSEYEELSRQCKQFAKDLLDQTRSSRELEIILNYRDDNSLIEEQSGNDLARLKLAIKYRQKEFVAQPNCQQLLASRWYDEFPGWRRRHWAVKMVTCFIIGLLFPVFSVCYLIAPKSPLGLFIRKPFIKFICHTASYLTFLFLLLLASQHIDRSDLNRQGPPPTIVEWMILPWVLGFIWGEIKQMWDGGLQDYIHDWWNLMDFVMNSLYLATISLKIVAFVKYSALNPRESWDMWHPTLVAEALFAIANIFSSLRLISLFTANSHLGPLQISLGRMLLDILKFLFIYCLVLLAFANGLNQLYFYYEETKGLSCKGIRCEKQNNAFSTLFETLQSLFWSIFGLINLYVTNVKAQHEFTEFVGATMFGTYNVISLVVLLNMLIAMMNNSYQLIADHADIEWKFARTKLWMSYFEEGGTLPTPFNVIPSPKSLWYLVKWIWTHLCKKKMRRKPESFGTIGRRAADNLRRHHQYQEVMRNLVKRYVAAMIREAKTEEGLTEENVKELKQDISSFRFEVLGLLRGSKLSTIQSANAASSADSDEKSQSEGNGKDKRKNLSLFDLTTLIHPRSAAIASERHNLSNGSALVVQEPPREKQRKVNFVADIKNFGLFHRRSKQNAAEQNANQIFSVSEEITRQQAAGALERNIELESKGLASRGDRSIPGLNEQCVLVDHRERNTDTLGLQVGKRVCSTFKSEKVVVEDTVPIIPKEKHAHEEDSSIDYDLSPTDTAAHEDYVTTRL
# [18] = cells; remark: listed apart in the source
# [19] = molecular target: T4, Estrogen receptor (Homo sapiens, UniProt P03372);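 also: potency for inhibiting coactivator peptide recruitment to the receptor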
# T4 sequence (P03372 whole entry): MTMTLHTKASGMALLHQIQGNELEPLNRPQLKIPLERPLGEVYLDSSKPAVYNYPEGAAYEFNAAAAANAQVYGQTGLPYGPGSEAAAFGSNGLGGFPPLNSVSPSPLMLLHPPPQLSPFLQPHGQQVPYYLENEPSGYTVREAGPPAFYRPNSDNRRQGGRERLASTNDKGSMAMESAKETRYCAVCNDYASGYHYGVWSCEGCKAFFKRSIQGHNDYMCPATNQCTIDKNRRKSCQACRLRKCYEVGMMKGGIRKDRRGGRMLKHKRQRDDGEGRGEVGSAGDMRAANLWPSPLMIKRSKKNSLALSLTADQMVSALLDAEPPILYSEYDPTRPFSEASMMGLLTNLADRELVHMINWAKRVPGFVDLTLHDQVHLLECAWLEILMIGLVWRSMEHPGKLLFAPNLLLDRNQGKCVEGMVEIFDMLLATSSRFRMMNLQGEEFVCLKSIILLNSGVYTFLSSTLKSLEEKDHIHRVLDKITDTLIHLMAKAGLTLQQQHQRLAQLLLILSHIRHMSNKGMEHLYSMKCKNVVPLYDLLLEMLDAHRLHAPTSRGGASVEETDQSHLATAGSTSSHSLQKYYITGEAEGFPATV
# [20] = molecular target: T5, RNA-binding protein pos-1 (Caenorhabditis elegans, UniProt G5EF15); experiment: disruptors of C. elegans POS-1 RNA interaction – biochemical, fluorescence polarization, dose response (AID 1964);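 also: purified POS-1 fused to maltose binding protein made in E. coli; potency of compounds blocking POS-1 binding to fluorescent RNA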
# T5 sequence (G5EF15 whole entry): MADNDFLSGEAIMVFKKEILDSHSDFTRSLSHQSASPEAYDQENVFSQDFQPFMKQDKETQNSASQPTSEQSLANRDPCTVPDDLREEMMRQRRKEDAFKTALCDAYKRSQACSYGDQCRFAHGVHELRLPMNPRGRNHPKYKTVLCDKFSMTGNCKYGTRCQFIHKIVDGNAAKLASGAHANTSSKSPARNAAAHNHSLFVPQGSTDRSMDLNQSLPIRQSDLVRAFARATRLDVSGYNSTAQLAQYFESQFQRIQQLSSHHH
# [21] = molecular target: T6, Zinc finger protein mex-5 (Caenorhabditis elegans, UniProt Q9XUB2); experiment: potency of MEX-5 RNA-binding blockers – biochemical, C. elegans, fluorescence polarization, dose response (AID 1960)
# T6 sequence (Q9XUB2 whole entry): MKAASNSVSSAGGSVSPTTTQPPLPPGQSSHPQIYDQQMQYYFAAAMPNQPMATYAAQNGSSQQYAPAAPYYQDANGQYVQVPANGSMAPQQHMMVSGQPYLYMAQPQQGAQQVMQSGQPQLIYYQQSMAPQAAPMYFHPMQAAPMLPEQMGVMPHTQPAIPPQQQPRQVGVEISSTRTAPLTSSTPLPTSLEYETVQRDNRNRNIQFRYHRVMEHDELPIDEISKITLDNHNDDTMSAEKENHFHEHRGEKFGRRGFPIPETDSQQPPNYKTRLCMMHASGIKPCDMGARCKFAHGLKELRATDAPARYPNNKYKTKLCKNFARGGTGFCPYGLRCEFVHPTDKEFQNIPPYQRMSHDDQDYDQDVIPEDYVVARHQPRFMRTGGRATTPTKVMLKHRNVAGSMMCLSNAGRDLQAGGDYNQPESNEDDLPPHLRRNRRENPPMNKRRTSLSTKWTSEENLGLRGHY
# [22] = molecular target: Large T antigen (Simian virus 40, UniProt P03070); assay type: functional, Betapolyomavirus macacae;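 also: Confirmatory-stage PubChem screen for compounds that inhibit SV40 T antigen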
# [23] = THP-1 cell cytotoxicity, dose response, cytotoxicity control for non-replicating M. tuberculosis project (AID 489025); assay type: functional
# [24] = cells; assay type: functional
# [25] = molecular target: Genome polyprotein (dengue virus type 2, UniProt P29990); experiment: flavivirus cap methylation enzyme inhibition – biochemical, confirmation dose response, primary screen (AID 588689); assay type: functional
# [26] = viability of PTEN-deleted HCT116 cells – cell-based, HCT116 PTEN knockout, dose response (AID 1047); assay type: functional;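 also: HCT116 colon tumor cells with PTEN knocked out; cells exposed to compound for 60 hours before readout; potency for loss of cell viability measured by luminescence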
# [27] = viability of HCT116 lacking mutant beta-catenin – cell-based, human colon tumor, dose response (AID 1045); assay type: functional;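 also: HCT116 colon tumor cells with beta catenin knocked out; cells exposed to compound for 60 hours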
# [28] = system: H9c2; experiment: cells; assay type: functional, cell-based; conditions: Rattus norvegicus, H9c2, Myocardium;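 also: confirmatory concentration-response retest of ultra-high-throughput screening hits for modulation of myocardial damage; cell death induced by hydrogen peroxide oxidative stress; compound pretreatment for 60 min then peroxide exposure for 2 h; potency is for protecting the cells against peroxide damage rather than for killing them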
# Chain of Glyceraldehyde-3-phosphate dehydrogenase (P04406 whole entry): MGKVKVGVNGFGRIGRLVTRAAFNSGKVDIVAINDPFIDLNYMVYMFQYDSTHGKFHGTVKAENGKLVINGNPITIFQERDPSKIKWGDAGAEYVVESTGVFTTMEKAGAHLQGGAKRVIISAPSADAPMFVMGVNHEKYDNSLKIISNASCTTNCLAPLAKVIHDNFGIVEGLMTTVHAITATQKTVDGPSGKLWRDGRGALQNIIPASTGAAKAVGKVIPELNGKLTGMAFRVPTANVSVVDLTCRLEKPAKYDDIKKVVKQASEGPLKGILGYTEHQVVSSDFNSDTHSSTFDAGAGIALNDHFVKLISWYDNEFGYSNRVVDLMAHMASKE
# T1 sequence (Q92731 whole entry): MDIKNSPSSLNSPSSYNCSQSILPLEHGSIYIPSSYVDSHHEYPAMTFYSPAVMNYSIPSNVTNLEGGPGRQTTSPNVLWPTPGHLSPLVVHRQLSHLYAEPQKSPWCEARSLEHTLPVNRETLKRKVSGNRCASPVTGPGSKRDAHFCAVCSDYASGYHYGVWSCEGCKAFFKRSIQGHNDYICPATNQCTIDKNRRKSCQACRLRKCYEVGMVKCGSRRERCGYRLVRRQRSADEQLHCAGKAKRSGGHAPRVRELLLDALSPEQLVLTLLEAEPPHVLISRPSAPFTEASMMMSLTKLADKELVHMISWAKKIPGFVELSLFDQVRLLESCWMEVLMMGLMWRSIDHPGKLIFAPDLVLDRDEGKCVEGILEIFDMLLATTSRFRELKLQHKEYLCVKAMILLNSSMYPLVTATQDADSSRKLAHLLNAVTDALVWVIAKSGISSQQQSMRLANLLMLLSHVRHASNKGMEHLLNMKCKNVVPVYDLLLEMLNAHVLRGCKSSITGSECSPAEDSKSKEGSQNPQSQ
# Chain of Peroxisome proliferator-activated receptor gamma/Nuclear receptor coactivator 1 (P37231 whole entry): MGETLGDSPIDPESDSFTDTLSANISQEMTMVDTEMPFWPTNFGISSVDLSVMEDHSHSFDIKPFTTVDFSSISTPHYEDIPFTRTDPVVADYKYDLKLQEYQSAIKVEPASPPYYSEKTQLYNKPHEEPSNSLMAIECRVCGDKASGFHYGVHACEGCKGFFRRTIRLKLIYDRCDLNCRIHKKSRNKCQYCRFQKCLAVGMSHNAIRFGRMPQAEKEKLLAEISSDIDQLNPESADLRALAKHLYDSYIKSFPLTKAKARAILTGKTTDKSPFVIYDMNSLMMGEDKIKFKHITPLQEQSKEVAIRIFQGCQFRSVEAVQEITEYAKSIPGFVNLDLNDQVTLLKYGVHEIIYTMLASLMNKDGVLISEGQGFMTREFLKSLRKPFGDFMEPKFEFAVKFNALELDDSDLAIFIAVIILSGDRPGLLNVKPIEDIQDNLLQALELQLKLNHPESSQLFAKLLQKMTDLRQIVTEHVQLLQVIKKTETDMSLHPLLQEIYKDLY
# Chain of Peroxisome proliferator-activated receptor gamma/Nuclear receptor coactivator 1 (Q15788 whole entry, further chain): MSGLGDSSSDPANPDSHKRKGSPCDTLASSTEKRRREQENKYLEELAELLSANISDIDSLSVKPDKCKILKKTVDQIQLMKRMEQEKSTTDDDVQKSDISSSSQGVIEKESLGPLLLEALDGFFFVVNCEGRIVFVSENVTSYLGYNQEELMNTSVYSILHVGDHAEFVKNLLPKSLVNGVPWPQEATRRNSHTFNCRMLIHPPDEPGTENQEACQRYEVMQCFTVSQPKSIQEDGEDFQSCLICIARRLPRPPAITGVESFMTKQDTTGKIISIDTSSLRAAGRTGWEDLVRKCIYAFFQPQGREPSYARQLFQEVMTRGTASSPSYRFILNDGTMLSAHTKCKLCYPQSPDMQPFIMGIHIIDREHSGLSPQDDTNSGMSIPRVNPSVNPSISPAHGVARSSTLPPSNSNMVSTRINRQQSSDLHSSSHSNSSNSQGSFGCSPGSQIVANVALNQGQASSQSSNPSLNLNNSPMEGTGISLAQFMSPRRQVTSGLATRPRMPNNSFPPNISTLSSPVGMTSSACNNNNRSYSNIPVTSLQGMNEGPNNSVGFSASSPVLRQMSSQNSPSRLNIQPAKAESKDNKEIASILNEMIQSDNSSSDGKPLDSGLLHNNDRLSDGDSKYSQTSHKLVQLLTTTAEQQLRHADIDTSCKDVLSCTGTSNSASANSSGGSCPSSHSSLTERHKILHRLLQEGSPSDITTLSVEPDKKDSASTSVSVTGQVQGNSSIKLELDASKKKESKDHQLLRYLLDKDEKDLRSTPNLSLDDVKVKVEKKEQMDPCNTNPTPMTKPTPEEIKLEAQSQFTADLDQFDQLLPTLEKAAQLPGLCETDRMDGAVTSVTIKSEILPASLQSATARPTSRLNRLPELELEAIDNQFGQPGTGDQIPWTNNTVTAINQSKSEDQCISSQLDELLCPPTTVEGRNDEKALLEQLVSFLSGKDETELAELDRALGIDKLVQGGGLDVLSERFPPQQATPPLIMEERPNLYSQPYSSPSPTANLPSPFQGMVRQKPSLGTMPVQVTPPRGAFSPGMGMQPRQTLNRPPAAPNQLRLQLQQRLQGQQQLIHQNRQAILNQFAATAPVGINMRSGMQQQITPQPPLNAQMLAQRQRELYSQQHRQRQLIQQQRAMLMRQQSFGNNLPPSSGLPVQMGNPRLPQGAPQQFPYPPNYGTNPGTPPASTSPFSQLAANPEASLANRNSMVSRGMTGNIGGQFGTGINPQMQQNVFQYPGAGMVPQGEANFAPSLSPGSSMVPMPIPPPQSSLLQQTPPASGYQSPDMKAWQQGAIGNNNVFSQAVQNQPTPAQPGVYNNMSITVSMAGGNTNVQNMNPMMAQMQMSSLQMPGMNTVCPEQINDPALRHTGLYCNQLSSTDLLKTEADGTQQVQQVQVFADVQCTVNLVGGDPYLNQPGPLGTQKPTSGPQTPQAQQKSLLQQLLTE
# Chain of Peroxisome proliferator-activated receptor gamma/Nuclear receptor coactivator 3 (P37231 whole entry): as the sequence (P37231 whole entry) above
# Chain of Peroxisome proliferator-activated receptor gamma/Nuclear receptor coactivator 3 (Q9Y6Q9 whole entry, further chain): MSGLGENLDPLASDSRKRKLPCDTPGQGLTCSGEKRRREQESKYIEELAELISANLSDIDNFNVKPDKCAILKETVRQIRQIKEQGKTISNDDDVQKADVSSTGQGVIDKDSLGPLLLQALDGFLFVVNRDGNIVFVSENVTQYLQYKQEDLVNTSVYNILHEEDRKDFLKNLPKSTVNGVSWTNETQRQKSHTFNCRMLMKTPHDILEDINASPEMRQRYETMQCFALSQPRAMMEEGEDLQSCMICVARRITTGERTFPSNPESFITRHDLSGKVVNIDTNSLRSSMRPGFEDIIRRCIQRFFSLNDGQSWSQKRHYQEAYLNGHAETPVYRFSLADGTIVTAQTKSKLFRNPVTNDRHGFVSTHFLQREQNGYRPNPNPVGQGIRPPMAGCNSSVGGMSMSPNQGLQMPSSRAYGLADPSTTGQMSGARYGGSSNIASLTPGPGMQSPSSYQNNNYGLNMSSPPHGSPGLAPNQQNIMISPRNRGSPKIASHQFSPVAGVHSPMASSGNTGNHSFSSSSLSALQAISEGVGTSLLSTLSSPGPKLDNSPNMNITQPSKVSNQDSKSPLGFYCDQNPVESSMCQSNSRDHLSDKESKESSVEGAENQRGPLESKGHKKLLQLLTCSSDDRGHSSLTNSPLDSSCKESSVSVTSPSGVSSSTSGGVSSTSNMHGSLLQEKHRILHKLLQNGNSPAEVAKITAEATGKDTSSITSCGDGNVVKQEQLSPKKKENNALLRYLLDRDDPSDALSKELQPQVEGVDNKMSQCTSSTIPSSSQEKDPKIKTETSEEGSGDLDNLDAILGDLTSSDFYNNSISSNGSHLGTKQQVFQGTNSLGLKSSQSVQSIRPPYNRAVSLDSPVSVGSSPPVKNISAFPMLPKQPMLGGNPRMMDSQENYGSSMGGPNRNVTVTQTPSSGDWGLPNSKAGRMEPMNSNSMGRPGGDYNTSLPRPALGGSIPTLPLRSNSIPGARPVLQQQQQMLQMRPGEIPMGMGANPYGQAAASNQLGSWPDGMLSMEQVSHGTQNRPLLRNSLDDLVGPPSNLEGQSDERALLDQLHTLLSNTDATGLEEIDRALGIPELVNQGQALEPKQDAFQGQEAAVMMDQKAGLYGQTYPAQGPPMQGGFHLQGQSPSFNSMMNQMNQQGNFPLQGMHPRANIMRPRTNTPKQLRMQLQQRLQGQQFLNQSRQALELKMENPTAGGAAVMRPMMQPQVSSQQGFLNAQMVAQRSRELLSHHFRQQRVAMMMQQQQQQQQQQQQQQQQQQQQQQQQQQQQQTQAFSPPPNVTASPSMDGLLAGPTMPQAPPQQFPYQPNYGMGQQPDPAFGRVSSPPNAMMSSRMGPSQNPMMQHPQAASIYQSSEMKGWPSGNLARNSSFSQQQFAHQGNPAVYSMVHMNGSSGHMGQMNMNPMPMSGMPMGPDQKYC
# Chain of FAD-linked sulfhydryl oxidase ALR (P55789 whole entry): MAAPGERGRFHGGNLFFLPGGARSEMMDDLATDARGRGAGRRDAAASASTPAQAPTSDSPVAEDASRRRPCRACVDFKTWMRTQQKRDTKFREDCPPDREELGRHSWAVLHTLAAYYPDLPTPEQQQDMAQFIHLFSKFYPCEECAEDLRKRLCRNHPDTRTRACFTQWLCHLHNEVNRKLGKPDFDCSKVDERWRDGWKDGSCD
smiles,measurement,setting,value
CCN(CC)c1nc2c3c(nc4c(c3c1C#N)CC(=O)N4c1ccc(Cl)cc1)NC(C)=N2,IC50,[1],2.18 µM (active)
COC(=O)C1=C(C)N(Cc2ccccc2)C(=O)N[C@H]1c1cccc(C(F)(F)F)c1,CC50,[2],32.9 µM (active)
same,IC50,[3],8.17 µM (active)
CC(C)(C)CC(=O)NC(=S)NCCc1ccccc1,CC50,[2],39.4 µM (active)
same,IC50,[3],18.4 µM (active)
Cn1c(=O)cc(SCC(=O)NCc2cccnc2)c2ccccc21,EC50,[4],> 79.4 µM (inactive)
same,EC50,[5],> 79.4 µM (not active)
same,EC50,[6],> 79.4 µM (not active)
Cc1ccc(C2=NC(=O)/C(=C/C=C/c3ccc([N+](=O)[O-])o3)S2)cc1,IC50,[7],> 100 µM (not active)
CCC(C(=O)Nc1nnc(-c2ccco2)s1)c1ccccc1 (configuration not stated),EC50,[4],> 79.4 µM (inactive)
same,EC50,[5],> 79.4 µM (not active)
same,EC50,[6],43.6 µM (not active)
O=C(CN1CCN(c2ccc(O)cc2)CC1)Nc1cc([N+](=O)[O-])ccc1Cl,IC50,[1],5.07 µM (active)
same,AC50,[8],1.24 µM (active)
Nc1nc(-c2ccco2)c(-c2ccco2)s1,IC50,[9],> 50 µM (not active)
same,IC50,[10],101 µM (not active)
same,IC50,[11],> 66 µM (inactive)
same,IC50,[12],> 66 µM (inactive)
O=C(CCN1CCc2ccccc2C1)c1ccc2c(c1)OCCO2,EC50,[13],9.07 µM (active)
same,EC50,[14],11.5 µM (active)
Cc1ccc(-n2c(S)nnc2-c2ccccc2)cc1,EC50,[4],33.6 µM (inactive)
same,EC50,[5],> 79.4 µM (not active)
same,EC50,[6],18.4 µM (not active)
CN(CC1CCCN(CCc2cccc(C(F)(F)F)c2)C1)C(=O)c1cc2ccccc2o1 (configuration not stated),EC50,[15],< 0.1 µM (active)
same,EC50,[16],8.57 µM (active)
same,EC50,[17],0.668 µM (active)
same,EC50,[18],0.082 µM (active)
CCOC(=O)Cc1cc(O)n2nc(-c3ccc(C)cc3)cc2n1,IC50,[19],13.9 µM (active)
same,IC50,[9],6.5 µM (active)
same,IC50,[10],46.7 µM (not active)
Cc1ccc2nc(N(CCCN(C)C)C(=O)c3cc4ccccc4oc3=O)sc2c1,EC50,[15],< 0.1 µM (active)
same,EC50,[16],> 60 µM (not active)
same,EC50,[18],0.116 µM (active)
O=[N+]([O-])c1cc(C(F)(F)F)ccc1N1CCC(O)CC1,CC50,[2],47.2 µM (active)
same,IC50,[3],19.8 µM (active)
COc1cccc(N2C(=O)NC(=O)/C(=C/c3ccc([N+](=O)[O-])s3)C2=O)c1,CC50,[2],13.8 µM (active)
same,EC50,[20],34.4 µM (active)
same,EC50,[21],27.2 µM (active)
same,IC50,[22],47.3 µM (active)
same,CC50,[23],37.1 µM (active)
same,IC50,[24],27.6 µM (active)
same,IC50,[25],38 µM (active)
O=C(CSc1nnc(SCC(=O)c2ccco2)s1)c1ccco1,IC50,[19],21.2 µM (active)
same,IC50,[9],6.51 µM (active)
same,IC50,[10],> 109 µM (not active)
CN(C)C1=C(Cl)C(=O)N(c2cccc(C(F)(F)F)c2)C1=O,IC50,[7],> 50 µM (inconclusive)
C=CCn1cnc2c(c1=O)c1nc3ccccc3nc1n2/N=C/c1cc(OC)c(OC)c(OC)c1,EC50,[13],11.2 µM (active)
same,EC50,[14],5.68 µM (active)
same,EC50,[26],4.4 µM (active)
same,EC50,[27],4.67 µM (active)
same,IC50,[28],> 79 µM (inactive)
COc1cc(S(=O)(=O)Nc2cccnc2)c(OC)cc1Cl,IC50,[7],> 100 µM (not active)
